Key:
[1] = Aqueous solubility of the compound; assay type: physicochemical
Albumin = Albumin (Bos taurus, UniProt P02769); assay: Binding affinity to bovine serum albumin
Chain of Albumin (P02769 whole entry): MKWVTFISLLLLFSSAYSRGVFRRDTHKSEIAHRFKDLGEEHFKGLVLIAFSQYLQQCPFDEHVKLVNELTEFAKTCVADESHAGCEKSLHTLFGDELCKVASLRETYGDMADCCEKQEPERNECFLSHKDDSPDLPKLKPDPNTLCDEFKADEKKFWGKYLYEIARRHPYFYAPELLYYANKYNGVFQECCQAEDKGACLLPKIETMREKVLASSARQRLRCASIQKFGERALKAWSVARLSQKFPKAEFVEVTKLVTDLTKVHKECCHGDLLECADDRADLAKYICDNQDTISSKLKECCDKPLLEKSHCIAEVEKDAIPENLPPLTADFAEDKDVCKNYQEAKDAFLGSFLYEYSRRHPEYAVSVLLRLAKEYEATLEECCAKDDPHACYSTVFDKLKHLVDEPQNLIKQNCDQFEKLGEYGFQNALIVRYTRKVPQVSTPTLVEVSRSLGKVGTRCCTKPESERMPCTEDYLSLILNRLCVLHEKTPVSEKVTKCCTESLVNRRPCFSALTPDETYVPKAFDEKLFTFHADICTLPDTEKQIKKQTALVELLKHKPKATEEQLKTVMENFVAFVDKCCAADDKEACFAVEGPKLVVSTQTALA

| SMILES | solubility [1] [µM] | EC50 (Albumin) [nM] |
| --- | --- | --- |
| CCN(CC)c1ccc2nc3c4ccc(OCCCC(=O)O)cc4c(=O)cc-3oc2c1 | > 100 |  |
| CCN(CC)c1ccc2nc3c4ccc(OCCCC(=O)O)cc4c(=O)c(Br)c-3oc2c1 | > 100 |  |
| CCN(CC)c1ccc2nc3c4cc(OCCCC(=O)O)ccc4c(=O)cc-3oc2c1 | > 100 | 1500 |
| CCN(CC)c1ccc2nc3c4cc(OCCCC(=O)O)ccc4c(=O)c(Br)c-3oc2c1 | > 100 |  |

Source: ChEMBL document CHEMBL1143986, “Probing lipid- and drug-binding domains with fluorescent dyes” (Bioorg Med Chem, 2008)
